Test results published in ChEMBL document CHEMBL4651402, “Screening of ~5500 FDA-approved drugs and clinical candidates for anti-SARS-CoV-2 activity” (2021).
Structures can show the parent of a compound that is named as a salt.

System: SARS-CoV-2
Assay: microbe, parasite or virus in culture
Details: Severe acute respiratory syndrome coronavirus 2, Vero C1008, 48 h

| Compound | IC50 [µM] | IC50 (read-out: pIC50 (converted)) [µM] |
| --- | --- | --- |
| CC(C)(S)[C@@H](N)C(=O)O [PENICILLAMINE] | > 20 | > 20 |
| CC1(C)S[C@@H]2[C@H](NC(=O)Cc3ccccc3)C(=O)N2[C@H]1C(=O)O [PENICILLIN G] | > 20 | > 20 |
| CSCC[C@H](NC(=O)[C@H](Cc1c[nH]c2ccccc12)NC(=O)CCNC(=O)OC(C)(C)C)C(=O)N[C@@H](CC(=O)O)C(=O)N[C@@H](Cc1ccccc1)C(N)=O [PENTAGASTRIN] | > 20 | > 20 |
| C[N+](C)(C)CCCCC[N+](C)(C)C [PENTAMETHONIUM] | > 20 | > 20 |
| N=C(N)c1ccc(OCCCCCOc2ccc(C(=N)N)cc2)cc1 [PENTAMIDINE] | > 20 | > 20 |
| CCC(C)C(C(=O)OC1CCN(C)CC1)c1ccccc1 (centres undefined) [PENTAPIPERIDE] | > 20 | > 20 |
| O=C(O)CN(CCN(CC(=O)O)CC(=O)O)CCN(CC(=O)O)CC(=O)O [PENTETIC ACID] | > 20 | > 20 |
| CC[N+](C)(CC)CCOC(=O)C(O)(c1cccs1)C1CCCC1 (centres undefined) [PENTHIENATE] | > 20 | > 20 |
| CCCC(C)C1(CC)C(=O)NC(=O)NC1=O (centres undefined) [PENTOBARBITAL] | > 20 | > 20 |
| CCOC(=O)[C@H](C)C[C@@H](C)C(=O)N1c2ccccc2C[C@H]1C(=O)O [PENTOPRIL] | > 20 | > 20 |
| OC[C@H]1O[C@@H](n2cnc3c2N=CNC[C@H]3O)C[C@@H]1O [PENTOSTATIN] | > 20 | > 20 |
| CC(=O)CCCCn1c(=O)c2c(ncn2C)n(C)c1=O [PENTOXIFYLLINE] | > 20 | > 20 |
| C1CCc2nnnn2CC1 [PENTYLENETETRAZOL] | > 20 | > 20 |
| CC(C)CC(=O)N[C@H](C(=O)N[C@H](C(=O)N[C@@H](CC(C)C)[C@@H](O)CC(=O)N[C@@H](C)C(=O)N[C@@H](CC(C)C)[C@@H](O)CC(=O)O)C(C)C)C(C)C [PEPSTATIN] | > 20 | > 20 |
| CCCN1C[C@H](CSC)C[C@@H]2c3cccc4[nH]cc(c34)C[C@H]21 [PERGOLIDE MESYLATE] | > 20 | > 20 |
| C1CCC(C(CC2CCCCN2)C2CCCCC2)CC1 (centres undefined) [PERHEXILINE MALEATE] | > 20 | > 20 |
| O=C1[C@H]2CCCC[C@H]2C(=O)N1CCCCN1CCN(c2nsc3ccccc23)CC1 [PEROSPIRONE] | > 20 | > 20 |
| OCCN1CCN(CCCN2c3ccccc3Sc3ccc(Cl)cc32)CC1 [PERPHENAZINE] | > 20 | > 20 |
| OCC(O)C(O)C(O)C(O)C(O)CO (centres undefined) [PERSEITOL] | > 20 | > 20 |
| CO[C@H]1[C@H](O)[C@H](O[C@H]2CC[C@@]3(C=O)[C@H](CC[C@@H]4[C@@H]3CC[C@]3(C)[C@@H](C5=CC(=O)OC5)CC[C@]43O)C2)O[C@@H](C)[C@@H]1O [PERUVOSIDE] | > 20 | > 20 |
| NS(=O)(=O)OC[C@@H]1C[C@@H](n2ccc3c(N[C@H]4CCc5ccccc54)ncnc32)C[C@@H]1O [PEVONEDISTAT] | > 20 | > 20 |
| FC(F)(F)c1ccc(CNc2ccc(Cc3c[nH]c4ncc(Cl)cc34)cn2)cn1 [PEXIDARTINIB] | > 20 | > 20 |
| CCCOCCn1c(=O)c(N2CCN(CCO)CC2)nc2cnc(-c3ccc(OC)nc3)cc21 [PF-03049423] | > 20 | > 20 |
| COc1ccc(-c2cc3c(C)nc(N)nc3n([C@H]3CC[C@H](OCCO)CC3)c2=O)cn1 [PF-04691502] | > 20 | > 20 |
| Nc1[nH]ncc1-c1cc(Cl)ccc1Oc1cc(F)c(S(=O)(=O)Nc2cscn2)cc1Cl [PF-05089771] | > 20 | > 20 |
| C=CC(=O)N1C[C@H](COc2nc(Nc3cnn(C)c3)nc3[nH]cc(Cl)c23)[C@@H](OC)C1 [PF-06459988] | > 20 | > 20 |

| Compound | IC50 [µM] | IC50 (read-out: pIC50 (converted)) [µM] |
| --- | --- | --- |
| CCOc1cccnc1Oc1cncc(-c2ncc(C(=O)N[C@H]3CCOC3)cn2)c1 [PF-06865571] | > 20 | > 20 |
| CNC(=O)c1ccc(C)c(-n2c(C)cc(OCc3ccc(F)cc3F)c(Br)c2=O)c1 [PH-797804] | > 20 | > 20 |
| O=C1C(=O)c2ncccc2-c2cccnc21 [PHANQUONE] | > 20 | > 20 |
| CCOc1ccc(/N=C(\C)Nc2ccc(OCC)cc2)cc1 [PHENACAINE] | > 20 | > 20 |
| NC(=O)NC(=O)Cc1ccccc1 [PHENACEMIDE] | > 20 | > 20 |
| CCOc1ccc(NC(C)=O)cc1 [PHENACETIN] | > 20 | > 20 |
| CCC(=O)C(CC(C)N1CCOCC1)(c1ccccc1)c1ccccc1 (centres undefined) [PHENADOXONE] | > 20 | > 20 |
| CC1C2Cc3ccc(O)cc3C1(C)CCN2CCc1ccccc1 (centres undefined) [PHENAZOCINE] | > 20 | > 20 |
| Nc1ccc(/N=N/c2ccccc2)c(N)n1 [PHENAZOPYRIDINE] | > 20 | > 20 |
| CCN(CC)CCSC(=O)N(c1ccccc1)c1ccccc1 [PHENCARBAMIDE] | > 20 | > 20 |
| c1ccc(C2(N3CCCCC3)CCCCC2)cc1 [PHENCYCLIDINE] | > 20 | > 20 |
| NNCCc1ccccc1 [PHENELZINE] | > 20 | > 20 |
| CC(Oc1ccccc1)C(=O)N[C@@H]1C(=O)N2[C@@H]1SC(C)(C)[C@@H]2C(=O)O (some centres undefined) [PHENETHICILLIN] | > 20 | > 20 |
| CCC(C(=O)NC(N)=O)c1ccccc1 (centres undefined) [PHENETURIDE] | > 20 | > 20 |
| N=C(N)NC(=N)NCCc1ccccc1 [PHENFORMIN] | > 20 | > 20 |
| NCC(CC(=O)O)c1ccccc1 (centres undefined) [PHENIBUT] | > 20 | > 20 |
| NC(=O)NNc1ccccc1 [PHENICARBAZIDE] | > 20 | > 20 |
| CN1CCC2=C(C1)C(c1ccccc1)c1ccccc12 (centres undefined) [PHENINDAMINE] | > 20 | > 20 |
| O=C1c2ccccc2C(=O)C1c1ccccc1 [PHENINDIONE] | > 20 | > 20 |
| CC(Cc1ccccc1)NN (centres undefined) [PHENIPRAZINE] | > 20 | > 20 |
| CN(C)CCC(c1ccccc1)c1ccccn1 (centres undefined) [PHENIRAMINE] | > 20 | > 20 |
| CC1NCCOC1c1ccccc1 (centres undefined) [PHENMETRAZINE] | > 20 | > 20 |
| CCC1(c2ccccc2)C(=O)NC(=O)NC1=O [PHENOBARBITAL] | > 20 | > 20 |
| O=C1OC(c2ccc(O)cc2)(c2ccc(O)cc2)c2ccccc21 [PHENOLPHTHALEIN] | > 20 | > 20 |
| Oc1ccccc1 [PHENOL] | > 20 | > 20 |
| CCOC(=O)C1(c2ccccc2)CCN(CCC(O)c2ccccc2)CC1 (centres undefined) [PHENOPERIDINE] | > 20 | > 20 |

| Compound | IC50 [µM] | IC50 (read-out: pIC50 (converted)) [µM] |
| --- | --- | --- |
| c1ccc2c(c1)Nc1ccccc1S2 [PHENOTHIAZINE] | > 20 | > 20 |
| NC(=O)OCCCc1ccccc1 [PHENPROBAMATE] | > 20 | > 20 |
| CCC(c1ccccc1)c1c(O)c2ccccc2oc1=O (centres undefined) [PHENPROCOUMON] | > 20 | > 20 |
| CN1C(=O)CC(c2ccccc2)C1=O (centres undefined) [PHENSUXIMIDE] | > 20 | > 20 |
| CC(C)(N)Cc1ccccc1 [PHENTERMINE] | > 20 | > 20 |
| Cc1ccc(N(CC2=NCCN2)c2cccc(O)c2)cc1 [PHENTOLAMINE] | > 20 | > 20 |
| N=C(N)NC(=N)Nc1ccccc1 [PHENYL BIGUANIDE] | > 20 | > 20 |
| O=C(O)Cc1ccccc1 [PHENYLACETIC ACID] | > 20 | > 20 |
| N[C@@H](Cc1ccccc1)C(=O)O [PHENYLALANINE] | > 20 | > 20 |
| O=C(O)CCCc1ccccc1 [PHENYLBUTANOIC ACID] | > 20 | > 20 |
| CCCCC1C(=O)N(c2ccccc2)N(c2ccccc2)C1=O [PHENYLBUTAZONE] | > 20 | > 20 |
| CNC[C@H](O)c1cccc(O)c1 [PHENYLEPHRINE] | > 20 | > 20 |
| OCCc1ccccc1 [PHENYLETHYL ALCOHOL] | > 20 | > 20 |
| CN(C)CCOc1ccccc1Cc1ccccc1 [PHENYLTOLOXAMINE] | > 20 | > 20 |
| OC(CNc1ccccn1)c1ccccc1 (centres undefined) [PHENYRAMIDOL] | > 20 | > 20 |
| O=C1NC(=O)C(c2ccccc2)(c2ccccc2)N1 [PHENYTOIN] | > 20 | > 20 |
| CCCCCCCCCCCCCC(=O)O[C@@H]1[C@@H](C)[C@@]2(O)[C@@H](C=C(CO)C[C@]3(O)C(=O)C(C)=C[C@@H]23)[C@@H]2C(C)(C)[C@]12OC(C)=O [PHORBOL MYRISTATE ACETATE] | > 20 | > 20 |
| O=C(O)c1ccccc1C(=O)Nc1ccc(S(=O)(=O)Nc2nccs2)cc1 [PHTHALYLSULFATHIAZOLE] | > 20 | > 20 |
| CNC(=O)Oc1ccc2c(c1)[C@]1(C)CCN(C)[C@@H]1N2C [PHYSOSTIGMINE] | > 20 | > 20 |
| CCCCCCCCCCCCCC[C@@H](O)[C@@H](O)[C@@H](N)CO [PHYTOSPHINGOSINE] | > 20 | > 20 |
| CCCCN1CCC(CNC(=O)c2c3n(c4ccccc24)CCCO3)CC1 [PIBOSEROD] | > 20 | > 20 |
| OC[C@H]1O[C@@H](Oc2cc(O)cc(/C=C/c3ccc(O)cc3)c2)[C@H](O)[C@@H](O)[C@@H]1O [PICEID] | > 20 | > 20 |
| OCc1ccccn1 [PICONOL] | > 20 | > 20 |
| COc1ccc(C(=O)NCc2cccnc2)cc1C(=O)NCc1cccnc1 [PICOTAMIDE] | > 20 | > 20 |
| CS(=O)(=O)N1CCN(Cc2cc3nc(-c4cccc5[nH]ncc45)nc(N4CCOCC4)c3s2)CC1 [PICTILISIB] | > 20 | > 20 |
